Data from patent publication US20160339057A1, “NOVEL COMPOSITION METHOD OF USING THE SAME FOR THE TREATMENT OF LYME DISEASE” (priority 2014, published 2016).

Legend:
[1] = test system: spirochetes of B. garinii; experiment: Susceptibility of spirochetes, dark-field microscopy; type: cell-based, Borrelia garinii CIP103362; conditions: most effective concentration (doxycycline: commonly tested concentration, 250 μg/ml), up to 7 days
Description: (§1) To determine what compound/mixture will inhibit visible growth of B. burgdorferi and B. garinii, a new and accepted micro-dilution method was used according to Sapi et al. Infection and Drug Resistance 2011. Briefly, sterile 1.5 ml test tightly caps screwed tubes containing 1 ml BSK-H medium, supplemented with the test compound of interest were inoculated with 2×10^6 CFU/ml of the homogenous bacterial suspension. The tubes were then incubated at 33° C. and growth was monitored at regular intervals for up to 72 h. The whole experiment was repeated three times for each strain and each concentration. Control cultures were treated with ethanol (i.e. 0.1-0.4 vol/vol) alone. For doxycycline, the final used concentration was 250 μg/m1. Cell growth was assessed by a bacterial Petroff-Hausser counting chamber after the 0 hour, 24 hrs, 48 hrs, 72 hrs and 7 days of incubation using dark field microscopy (direct cell counting), as a standard procedure.

biofilm of B. garinii = experiment: Biofilm on extracellular matrix proteins, crystal violet staining; type: cell-based, Borrelia garinii CIP103362; conditions: 5 extracellular matrix proteins, most effective concentration
Description: (§2) Qualitative effect of the test compounds against biofilm-like colonies of B. burgdorferi and B. garinii was evaluated using commonly used and well accepted crystal violet (CV) staining method, according to protocol provided by Sapi et al. Infection and Drug Resistance 2011. Briefly, for curable effect, 1×10^7 CFU/ml from homogeneous cultures of spirochetes were inoculated in extracellular matrix proteins (i.e. matrigel, collagen type I, fibrinogen, hyaluronan, and chondroitin sulfate) coated four-well chambers and incubated for 1 week, respectively. After the 1 week of incubation, biofilm-like colonies were treated with various compounds/mixtures. For preventive effect, 1×10^7 CFU/ml from homogeneous cultures of spirochetes complemented with various compounds/mixtures were inoculated in extracellular matrix proteins (i.e. matrigel, collagen type I, fibrinogen, hyaluronan, and chondroitin sulfate) coated four-well chambers and incubated for 1 week, respectively. Control wells were treated with ethanol (i.e. 0.1-0.4 vol/vol) alone. For doxycycline, as a positive control, the final used concentration was […]. The chambers were then incubated at 33° C. for 72 h. […] The biofilm-like colonies were carefully washed three times with 1×PBS and 1 ml of methanol was added to each well to extract a dye, which was measured at 595 nm wavelength.

[2] = test system: biofilm of B. burgdorferi; experiment: as above; type: cell-based, Borrelia burgdorferi B31; conditions: 5 extracellular matrix proteins, most effective concentration
Description: as §2

[3] = test system: rounded forms of B. garinii; experiment: Susceptibility of rounded forms, SYTO 9 / propidium iodide fluorescent microscopy; type: cell-based, Borrelia garinii CIP103362; conditions: most effective concentration, up to 7 days
Description: (§3) To determine what compound/mixture will have the bactericidal effect a fluorescence method was used according to Sapi et al. Infection and Drug Resistance 2011. Briefly, 2×10^6 CFU/ml of the homogenous bacterial suspension was inoculated into each sterile 1.5 ml test tightly caps screwed tubes containing 1 ml BSK-H medium, supplemented with the test compound/mixture of interest. Control cultures were treated with ethanol (i.e. 0.1-0.4 vol/vol) alone. For doxycycline, as a positive control, the final used concentration was 250 μg/m1. The tubes were then incubated at 33° C. and viability was monitored at regular intervals for up to 72 h. The whole experiment was repeated three times for each strain and each concentration. The susceptibility of spirochetes and round body forms to the test compound was then assessed after 24 h, 48 h, 72 h and 7 days by LIVE/DEAD® BacLight™ Bacterial Viability Assay using fluorescent microscopy, were the ratio of live (green) and dead (red) B. burgdorferi and B. garinii morphological forms were calculated.

[4] = test system: rounded forms of B. burgdorferi; experiment: as above; type: cell-based, Borrelia burgdorferi B31; conditions: most effective concentration, up to 7 days
Description: as §3

[5] = test system: spirochetes of B. burgdorferi; experiment: Susceptibility of spirochetes, dark-field microscopy; type: cell-based, Borrelia burgdorferi B31; conditions: most effective concentration (doxycycline: commonly tested concentration, 250 μg/ml), up to 7 days
Description: as §1

C[C@H]1c2cccc(O)c2C(=O)C2=C(O)[C@]3(O)C(=O)C(C(N)=O)=C(O)[C@@H](N(C)C)[C@@H]3[C@@H](O)[C@@H]21 [doxycycline]
decrease of amount of spiral forms [1]: 60-75%
biofilm eradicated (curable effect) (biofilm of B. garinii; 3 days post-treatment): 5-40%
biofilm formation prevented (preventive effect) (biofilm of B. garinii; after 7 days): 40-60%
biofilm eradicated (curable effect) ([2]; 3 days post-treatment): 5-40%
biofilm formation prevented (preventive effect) ([2]; after 7 days): 40-60%
increase of dead of rounded forms [3]: 5-10%
rounded forms formation generated [3]: about 2 times
increase of dead of rounded forms [4]: 5-10%
rounded forms formation generated [4]: about 2 times
decrease of amount of spiral forms [5]: 60-75%
